Experimental data as given in US12559506B2, “Indazole based compounds and associated methods of use” (Arvinas Operations, Inc., priority 2021, dated 2026).
Where two headings read alike, the source gives them in different places.

Biological target: T1, LRRK2 (endogenous, HiBit tagged) (Homo sapiens, UniProt Q5S007)
T1 construct: endogenous in cells; host or cells: HEK293 cells with HiBit knock-in at the endogenous LRRK2 locus, stably expressing firefly luciferase
Assay: Endogenous LRRK2 degradation assay, endogenous gene C-terminally HiBit-tagged in HEK293 cells (Nano-Glo Dual Luciferase)
Assay type: cell-based
Outline: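 LRRK2-HiBit quantified via Nano-Glo Dual Luciferase in HEK293 knock-in cells co-expressing firefly luciferase, after 24 h exposure to compound (1 μM final top, 1:3, 11 points). Values normalised to DMSO median per plate and curve-fitted; Alamar Blue viability run alongside.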

[1] = endogenous HiBit-tagged LRRK2 in HEK293 cells, 24 hours treatment, read-out: **Endogenous WT Dmax (%)
[2] = endogenous HiBit-tagged LRRK2 in HEK293 cells, 24 hours treatment, read-out: *Endogenous WT DC50
[3] = endogenous HiBit-tagged LRRK2, HEK293 cells, 24 hours, read-out: **Endogenous WT Dmax (%)
[4] = endogenous HiBit-tagged LRRK2, HEK293 cells, 24 hours, read-out: *Endogenous WT DC50
[5] = endogenous HiBit-tagged LRRK2 in HEK293 cells, 24 hours treatment, read-out: Endogenous WT DC50
[6] = endogenous HiBit-tagged LRRK2 in HEK293 cells, 24 hours treatment, read-out: Endogenous WT Dmax

T1 sequence (Q5S007 whole entry): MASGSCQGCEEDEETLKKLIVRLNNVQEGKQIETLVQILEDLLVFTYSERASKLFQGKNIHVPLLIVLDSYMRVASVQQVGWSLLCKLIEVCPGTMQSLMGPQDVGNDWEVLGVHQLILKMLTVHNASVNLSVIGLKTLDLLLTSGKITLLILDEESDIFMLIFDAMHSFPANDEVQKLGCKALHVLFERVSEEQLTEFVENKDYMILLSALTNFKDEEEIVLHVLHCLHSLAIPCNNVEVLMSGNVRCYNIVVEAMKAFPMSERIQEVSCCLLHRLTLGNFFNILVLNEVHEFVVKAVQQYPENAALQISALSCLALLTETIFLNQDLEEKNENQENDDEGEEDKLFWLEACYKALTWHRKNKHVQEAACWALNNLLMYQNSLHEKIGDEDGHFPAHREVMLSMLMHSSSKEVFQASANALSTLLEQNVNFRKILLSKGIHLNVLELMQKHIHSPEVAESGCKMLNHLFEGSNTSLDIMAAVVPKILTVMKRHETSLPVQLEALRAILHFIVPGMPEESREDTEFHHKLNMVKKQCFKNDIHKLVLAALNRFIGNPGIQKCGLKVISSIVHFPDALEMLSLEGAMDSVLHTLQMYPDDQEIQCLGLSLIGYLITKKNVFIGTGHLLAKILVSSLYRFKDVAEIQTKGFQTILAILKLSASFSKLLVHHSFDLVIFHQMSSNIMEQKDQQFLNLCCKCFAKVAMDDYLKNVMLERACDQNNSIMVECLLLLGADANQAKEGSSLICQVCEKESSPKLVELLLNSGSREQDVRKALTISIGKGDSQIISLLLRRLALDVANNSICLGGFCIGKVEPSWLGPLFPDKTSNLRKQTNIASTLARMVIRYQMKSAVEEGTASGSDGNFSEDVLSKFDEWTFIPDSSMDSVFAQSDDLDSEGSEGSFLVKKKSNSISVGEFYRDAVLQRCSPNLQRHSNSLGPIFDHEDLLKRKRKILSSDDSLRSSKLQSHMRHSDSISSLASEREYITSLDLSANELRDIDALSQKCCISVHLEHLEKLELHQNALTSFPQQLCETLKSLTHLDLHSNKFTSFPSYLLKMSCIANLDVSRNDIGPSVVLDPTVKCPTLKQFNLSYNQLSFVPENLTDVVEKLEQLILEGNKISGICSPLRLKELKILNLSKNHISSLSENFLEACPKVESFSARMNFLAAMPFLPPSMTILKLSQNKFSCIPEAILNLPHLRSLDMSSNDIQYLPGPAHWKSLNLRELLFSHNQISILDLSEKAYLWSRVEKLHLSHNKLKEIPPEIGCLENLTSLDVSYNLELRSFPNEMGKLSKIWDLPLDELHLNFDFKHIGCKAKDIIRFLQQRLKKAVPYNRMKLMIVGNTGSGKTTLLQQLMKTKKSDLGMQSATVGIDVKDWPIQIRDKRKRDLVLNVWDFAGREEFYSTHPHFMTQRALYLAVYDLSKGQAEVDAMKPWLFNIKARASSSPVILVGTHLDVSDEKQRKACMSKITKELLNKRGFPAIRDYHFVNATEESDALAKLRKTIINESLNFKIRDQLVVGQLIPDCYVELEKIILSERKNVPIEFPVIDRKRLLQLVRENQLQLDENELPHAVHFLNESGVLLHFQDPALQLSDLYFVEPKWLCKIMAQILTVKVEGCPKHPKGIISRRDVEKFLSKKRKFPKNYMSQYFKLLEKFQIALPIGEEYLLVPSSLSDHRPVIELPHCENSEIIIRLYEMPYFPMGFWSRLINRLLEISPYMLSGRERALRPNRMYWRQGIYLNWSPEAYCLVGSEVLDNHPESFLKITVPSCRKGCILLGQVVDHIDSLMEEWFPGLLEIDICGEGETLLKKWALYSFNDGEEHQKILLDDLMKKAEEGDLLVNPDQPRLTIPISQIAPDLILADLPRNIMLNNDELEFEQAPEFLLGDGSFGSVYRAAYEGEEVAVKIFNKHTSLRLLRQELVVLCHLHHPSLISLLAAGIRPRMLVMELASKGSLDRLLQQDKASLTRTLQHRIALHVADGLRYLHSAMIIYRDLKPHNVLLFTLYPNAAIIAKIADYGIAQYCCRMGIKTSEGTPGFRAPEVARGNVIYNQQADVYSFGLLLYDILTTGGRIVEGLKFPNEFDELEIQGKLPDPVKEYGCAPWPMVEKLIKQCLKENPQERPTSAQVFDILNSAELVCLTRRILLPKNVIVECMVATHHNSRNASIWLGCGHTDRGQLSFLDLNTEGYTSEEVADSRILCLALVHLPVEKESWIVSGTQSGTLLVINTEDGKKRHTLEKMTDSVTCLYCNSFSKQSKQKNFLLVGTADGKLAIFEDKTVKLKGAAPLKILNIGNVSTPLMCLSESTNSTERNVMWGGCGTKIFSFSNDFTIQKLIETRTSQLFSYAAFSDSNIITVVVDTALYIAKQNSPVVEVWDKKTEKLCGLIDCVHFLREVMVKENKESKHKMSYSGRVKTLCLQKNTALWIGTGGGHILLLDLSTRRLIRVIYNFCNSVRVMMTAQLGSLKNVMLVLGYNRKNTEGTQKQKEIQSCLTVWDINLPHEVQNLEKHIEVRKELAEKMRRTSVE

SMILES	Dmax [1] [%]	DC50 [2] [nM]	other results
C[C@H]1CN(CC2CCN(c3cc(-c4n[nH]c5cnc(OC6(C)CC6)cc45)ncn3)CC2)CCN1CC1CCN(c2ccc3c(c2F)CN(C2CCC(=O)NC2=O)C3=O)CC1 (stereo partly drawn) [Compound 276, 3-[4-fluoro-5-(4-{[(2S)-2-methyl-4-[(1-{6-[5-(1-methylcyclopropoxy)-1H-pyrazolo[3,4-c]pyridin-3-yl]pyrimidin-4-yl}piperidin-4-yl)methyl]piperazin-1-yl]methyl}piperidin-1-yl)-1-oxo-2,3-dihydro-1H-isoindol-2-yl]piperidine-2,6-dione]	50 to 70	< 10	–
CC1(Oc2ccc3[nH]nc(-c4cc(N5CCC(CN6CCN(C[C@H]7CCN(c8ccc9c(c8F)CN(C8CCC(=O)NC8=O)C9=O)C7)CC6)CC5)ncn4)c3c2)CC1 (stereo partly drawn) [Compound 330, 3-{4-fluoro-5-[(3R)-3-({4-[(1-{6-[5-(1-methylcyclopropoxy)-1H-indazol-3-yl]pyrimidin-4-yl}piperidin-4-yl)methyl]piperazin-1-yl}methyl)pyrrolidin-1-yl]-1-oxo-2,3-dihydro-1H-isoindol-2-yl}piperidine-2,6-dione]	50 to 70	< 10	–
CC1(Oc2ccc3n[nH]c(-c4cc(N5CC(OCC6(F)CCN(CC7CCN(c8ccc9c(c8F)CN(C8CCC(=O)NC8=O)C9=O)CC7)CC6)C5)ncn4)c3c2)CC1 (stereo not shown) [Compound 200, 3-[4-fluoro-5-[4-[[4-fluoro-4-[[1-[6-[5-(1-methylcyclopropoxy)-2H-indazol-3-yl]pyrimidin-4-yl]azetidin-3-yl]oxymethyl]-1-piperidyl]methyl]-1-piperidyl]-1-oxo-isoindolin-2-yl]piperidine-2,6-dione]	–	–	Dmax [3]: ≥ 70%; DC50 [4]: < 10 nM
COc1c(N2CCC(O[C@H]3CC[C@H](CN4CCN(c5cc(-c6n[nH]c7ccc(OC8(C)CC8)cc67)ncn5)CC4(C)C)CC3)CC2)ccc2c1CN(C1CCC(=O)NC1=O)C2=O (stereo partly shown) [Compound 382, 3-[4-methoxy-1-oxo-5-(4-{[(1r,4r)-4-[(2,2-dimethyl-4-{6-[5-(1-methylcyclopropoxy)-1H-indazol-3-yl]pyrimidin-4-yl}piperazin-1-yl)methyl]cyclohexyl]oxy}piperidin-1-yl)-2,3-dihydro-1H-isoindol-2-yl]piperidine-2,6-dione]	–	–	DC50 [5]: 10 to 50 nM; Dmax [6]: 50 to 70%
CC1(Oc2cc3c(-c4cc(N5CCC(CN6CCN(CC7CCN(c8ccc9c(c8F)CN(C8CCC(=O)NC8=O)C9=O)CC7)CC6)CC5)ncn4)n[nH]c3cn2)CC1 (stereo not shown) [Compound 201, 3-(4-fluoro-5-(4-((4-((1-(6-(5-(1-methylcyclopropoxy)-1H-pyrazolo[3,4-c]pyridin-3-yl)pyrimidin-4-yl)piperidin-4-yl)methyl)piperazin-1-yl)methyl)piperidin-1-yl)-1-oxoisoindolin-2-yl)piperidine-2,6-dione]	–	–	Dmax [3]: ≥ 70%; DC50 [4]: < 10 nM
CC1(Oc2ccc3[nH]nc(-c4cc(N5CCC(CN6CCC(F)(CN7CCN(c8ccc9c(c8F)CN(C8CCC(=O)NC8=O)C9=O)CC7)CC6)CC5)ncn4)c3c2)CC1 (stereo not shown) [Compound 190, 3-[4-fluoro-5-[4-[[4-fluoro-1-[[1-[6-[5-(1-methylcyclopropoxy)-1H-indazol-3-yl]pyrimidin-4-yl]-4-piperidyl]methyl]-4-piperidyl]methyl]piperazin-1-yl]-1-oxo-isoindolin-2-yl]piperidine-2,6-dione]	–	–	Dmax [3]: ≥ 70%; DC50 [4]: < 10 nM
CC1(Oc2ccc3n[nH]c(-c4cc(N5CCN(CCN6CCN(CC7CCN(c8ccc9c(c8)CN(C8CCC(=O)NC8=O)C9=O)CC7)CC6)CC5)ncn4)c3c2)CC1 (stereo not shown) [Compound 66, 3-{5-[4-({4-[2-(4-{6-[5-(1-methylcyclopropoxy)-2H-indazol-3-yl]pyrimidin-4-yl}piperazin-1-yl)ethyl]piperazin-1-yl}methyl)piperidin-1-yl]-1-oxo-2,3-dihydro-1H-isoindol-2-yl}piperidine-2,6-dione]	–	–	Dmax (endogenous HiBit-tagged LRRK2 in HEK293 cells, 24 hours, read-out: **Endogenous WT Dmax (%)): ≥ 70%; DC50 (endogenous HiBit-tagged LRRK2 in HEK293 cells, 24 hours, read-out: *Endogenous WT DC50): < 10 nM
CC1(Oc2ccc3n[nH]c(-c4cc(N5CCC(O[C@H]6C[C@H](N7CCC8(CC7)CN(c7ccc9c(c7F)CN(C7CCC(=O)NC7=O)C9=O)C8)C6)CC5)ncn4)c3c2)CC1 (stereo partly shown) [Compound 323, 3-(4-fluoro-1-oxo-5-{7-[(1r,3r)-3-[(1-{6-[5-(1-methylcyclopropoxy)-2H-indazol-3-yl]pyrimidin-4-yl}piperidin-4-yl)oxy]cyclobutyl]-2,7-diazaspiro[3.5]nonan-2-yl}-2,3-dihydro-1H-isoindol-2-yl)piperidine-2,6-dione]	50 to 70	< 10	–
CC1(Oc2ccc3[nH]nc(-c4cc(N5CCC(CN6CCN(CC7CCN(c8ccc9c(c8F)CN(C8CCC(=O)NC8=O)C9=O)CC7)CC6(C)C)CC5)ncn4)c3c2)CC1 (stereo not shown) [Compound 224, 3-[5-[4-[[3,3-dimethyl-4-[[1-[6-[5-(1-methylcyclopropoxy)-1H-indazol-3-yl]pyrimidin-4-yl]-4-piperidyl]methyl]piperazin-1-yl]methyl]-1-piperidyl]-4-fluoro-1-oxo-isoindolin-2-yl]piperidine-2,6-dione]	–	–	DC50 [5]: < 10 nM; Dmax [6]: 50 to 70%
C[C@H]1CN(c2ccc3c(c2F)CN(C2CCC(=O)NC2=O)C3=O)CCN1C[C@H]1CC[C@H](OC2CCN(c3cc(-c4n[nH]c5ccc(OC6(C)CC6)cc45)ncn3)CC2)CC1 (stereo partly drawn) [Compound 346, 3-{4-fluoro-5-[(3S)-3-methyl-4-{[(1r,4r)-4-[(1-{6-[5-(1-methylcyclopropoxy)-1H-indazol-3-yl]pyrimidin-4-yl}piperidin-4-yl)oxy]cyclohexyl]methyl}piperazin-1-yl]-1-oxo-2,3-dihydro-1H-isoindol-2-yl}piperidine-2,6-dione]	50 to 70	< 10	–
C[C@H]1CN(c2cc(-c3n[nH]c4ccc(OC5(C)CC5)cc34)ncn2)CCN1CCN1CCC2(CN(c3ccc4c(c3F)CN(C3CCC(=O)NC3=O)C4=O)C2)C(F)(F)C1 (stereo partly drawn) [Compound 317, 3-[5-(5,5-difluoro-7-{2-[(2S)-2-methyl-4-{6-[5-(1-methylcyclopropoxy)-1H-indazol-3-yl]pyrimidin-4-yl}piperazin-1-yl]ethyl}-2,7-diazaspiro[3.5]nonan-2-yl)-4-fluoro-1-oxo-2,3-dihydro-1H-isoindol-2-yl]piperidine-2,6-dione]	50 to 70	< 10	–
CC1(Oc2ccc3n[nH]c(-c4cc(N5CCC(O[C@H]6CC[C@H](OC7CCN(c8ccc9c(c8F)CN(C8CCC(=O)NC8=O)C9=O)CC7)CC6)CC5)ncn4)c3c2)CC1 (stereo partly shown) [Compound 228, 3-[4-fluoro-5-[4-[4-[[1-[6-[5-(1-methylcyclopropoxy)-2H-indazol-3-yl]pyrimidin-4-yl]-4-piperidyl]oxy]cyclohexoxy]-1-piperidyl]-1-oxo-isoindolin-2-yl]piperidine-2,6-dione]	–	–	DC50 [5]: 10 to 50 nM; Dmax [6]: 50 to 70%
CC1(Oc2ccc3[nH]nc(-c4cc(N5CCC(CN6CC[C@@H](OC7CCN(c8ccc9c(c8F)CN(C8CCC(=O)NC8=O)C9=O)CC7)CC6(C)C)CC5)ncn4)c3c2)CC1 (stereo partly drawn) [Compound 310, 3-[5-(4-{[(4R)-2,2-dimethyl-1-[(1-{6-[5-(1-methylcyclopropoxy)-1H-indazol-3-yl]pyrimidin-4-yl}piperidin-4-yl)methyl]piperidin-4-yl]oxy}piperidin-1-yl)-4-fluoro-1-oxo-2,3-dihydro-1H-isoindol-2-yl]piperidine-2,6-dione]	50 to 70	< 10	–
COc1c(N2CC3(CCN(CCC4CCN(c5cc(-c6n[nH]c7ccc(OC8(C)CC8)cc67)ncn5)CC4)CC3(F)F)C2)ccc2c1CN(C1CCC(=O)NC1=O)C2=O (stereo not shown) [Compound 341, 3-(5-{5,5-difluoro-7-[2-(1-{6-[5-(1-methylcyclopropoxy)-1H-indazol-3-yl]pyrimidin-4-yl}piperidin-4-yl)ethyl]-2,7-diazaspiro[3.5]nonan-2-yl}-4-methoxy-1-oxo-2,3-dihydro-1H-isoindol-2-yl)piperidine-2,6-dione]	50 to 70	< 10	–

Continued, in another order:

Dmax [1] [%]	DC50 [2] [nM]	SMILES	other results
50 to 70	< 10	C[C@@H]1CN(CC2CCN(c3cc(-c4n[nH]c5ccc(OC6(C)CC6)cc45)ncn3)CC2)C[C@H](C)N1CC1CCN(c2ccc3c(c2F)CN(C2CCC(=O)NC2=O)C3=O)CC1 (stereo partly drawn) [Compound 307, 3-[5-(4-{[(2R,6S)-2,6-dimethyl-4-[(1-{6-[5-(1-methylcyclopropoxy)-1H-indazol-3-yl]pyrimidin-4-yl}piperidin-4-yl)methyl]piperazin-1-yl]methyl}piperidin-1-yl)-4-fluoro-1-oxo-2,3-dihydro-1H-isoindol-2-yl]piperidine-2,6-dione]	–
50 to 70	< 10	CC1(Oc2ccc3n[nH]c(-c4cc(N5CCC(CO[C@H]6C[C@H](N7CCC(c8ccc9c(c8F)CN(C8CCC(=O)NC8=O)C9=O)CC7)C6)CC5)ncn4)c3c2)CC1 (stereo partly shown) [Compound 292, 3-(4-fluoro-1-oxo-5-{1-[(1r,3r)-3-[(1-{6-[5-(1-methylcyclopropoxy)-2H-indazol-3-yl]pyrimidin-4-yl}piperidin-4-yl)methoxy]cyclobutyl]piperidin-4-yl}-2,3-dihydro-1H-isoindol-2-yl)piperidine-2,6-dione]	–
50 to 70	< 10	COc1c(N2CCC(CN3CC[C@H](OC4CCN(c5cc(-c6n[nH]c7ccc(OC8(C)CC8)cc67)ncn5)CC4)CC3(C)C)CC2)ccc2c1CN(C1CCC(=O)NC1=O)C2=O (stereo partly drawn) [Compound 325, 3-(5-(4-(((S)-2,2-dimethyl-4-((1-(6-(5-(1-methylcyclopropoxy)-1H-indazol-3-yl)pyrimidin-4-yl)piperidin-4-yl)oxy)piperidin-1-yl)methyl)piperidin-1-yl)-4-methoxy-1-oxoisoindolin-2-yl)piperidine-2,6-dione]	–
